Experimental data taken from patent US12459918B2, “Isoquinolinone derivatives serving as rock protein kinase inhibitors and use thereof” (GUANGZHOU OCUSUN OPHTHALMIC BIOTECHNOLOGY CO., LTD., priority 2019, dated 2025).

Tests used:
Assay type in all cases: in vivo
[1] = tested on: New Zealand rabbits with acute ocular hypertension; assay: Intraocular pressure reduction experiment in New Zealand rabbits with acute ocular hypertension, experiment operation 2; conditions: for Intraocular pressure in the left eye: left eye (solvent, not modeled)
Source text: Experimental Example 3. Intraocular Pressure Reduction Experiment in New Zealand Rabbits with Acute Ocular Hypertension
Acute ocular hypertension of rabbits were induced by anterior chamber injection of a viscoelastic agent and the intraocular pressure reduction action of compound 60 and compound 63 at different concentrations were explored by eye-drop administration.
Male New Zealand rabbits, aged 97-127 days, weighted 2.5-3.4 kg, purchased from PizhouDongfang Breeding Co. Ltd.
50 male New Zealand rabbits were randomly divided into 5 groups according to body weight, with 10 rabbits/per group Animals in 1-5 groups were injected with medical sodium hyaluronate gel in the anterior chamber of right eye in a single dose, 100 μL/eye, to induce ocular hypertension. In 5-15 minutes after modeling, the right eye was respectively dropped with a solvent, K-115 and test samples (compound 63 at different concentrations), the left eye was dropped with a solvent, the volume of the administration was all 50 μL/eye, and intraocular pressure in both eyes of the animals was measured before administration and in 2, 4, 6, 8 and 10 hours after administration, respectively.

[2] = tested on: New Zealand rabbits with normal intraocular pressure; assay: Ocular stimulation response examination by hand-held slit lamp, 14 days eye-drop administration; conditions: 14 consecutive days, 50 μL/eye/day
Description: 42 male New Zealand rabbits were randomly divided into 7 groups, with 6 rabbits per group. Animals were randomly divided according to body weight Animals in 1-7 groups were eye-dropped with normal saline in the left eye and with solvent/control sample/test sample in the right eye respectively by a volume of 50 μL/eye, once per day for 14 consecutive days, and the day of administration was recorded as Day 1. The intraocular pressure of the animals was measured before Day 1 administration and in 1, 2, 4, 6, 8 and 10 hours after Day 1 administration, respectively (Table 8).
Before the experiment (Day 2/Day 1), before daily administration during the administration (Days 1-14), and in 1, 2, 4, 24, 48 and 72 hours after the last administration (Day 14), the eyes of animals were examined for ocular stimulation response and fluorescein sodium by a hand-held slit lamp (scoring by referring to the scoring criteria).
Before the experiment (Day 2/Day 1), before the first daily administration (Days 1-14) during the administration, and in 1, 2, 4, 24, 48 and 72 hours after the last administration, the eyes of animals were examined for ocular stimulation response by a hand-held slit lamp. The scoring criteria were as follows. […]

[3] = tested on: New Zealand rabbits with normal intraocular pressure; assay: Intraocular pressure reduction experiment in New Zealand rabbits with normal intraocular pressure; conditions: for Intraocular pressure in the left eye: 20 mg/mL group, left eye (saline or solvent); for Intraocular pressure in the right eye: 20 mg/mL in right eye; for Reduction magnitude of intraocular pressure: 20 mg/mL, left minus right eye
Source text: Experimental Example 2. Intraocular Pressure Reduction Experiment in New Zealand Rabbits with Normal Intraocular Pressure
Rabbits with normal intraocular pressure were adopted to screen intraocular pressure reduction actions of the potential compounds by eye-drop administration.
Male New Zealand rabbits, aged 97-127 days, weighted 2.65-3.5 kg, purchased from PizhouDongfang Breeding Co. Ltd.
The male New Zealand rabbits were randomly divided into 8 rabbits/per group using a computer-generated randomization method Animals in each group were eye-dropped with different test samples in the right eye, and normal saline or solvent in the left eye, and the volume of the administration was both 50 μL/eye. The intraocular pressure of the animals was measured before administration and in 1, 2, 4, 6, 8 and 10 hours after the administration, respectively.

For `Cc1ccc(C(=O)OCn2cc(C)c3c(S(=O)(=O)N4CC[C@H](N)C4)cccc3c2=O)c(C)c1` [Compound 63], the “Intraocular pressure in the left eye” value ([1]; 0.25 mg/mL group, 2 hours after administration) was 6.07 mmHg, the “Intraocular pressure in the left eye” value ([1]; 0.25 mg/mL group, 4 hours after administration) was 6.60 mmHg and the “Intraocular pressure in the left eye” value ([1]; 0.25 mg/mL group, 6 hours after administration) was 9.10 mmHg. For the same molecule, the “Intraocular pressure in the left eye” value ([1]; 0.25 mg/mL group, 8 hours after administration) was 11.50 mmHg, the “Intraocular pressure in the left eye” value ([1]; 0.25 mg/mL group, 10 hours after administration) was 12.43 mmHg and the “Intraocular pressure in the left eye” value ([1]; 0.25 mg/mL group, before administration) was 10.53 mmHg. The “Intraocular pressure in the right eye” value ([1]; 0.25 mg/mL in right eye (induced ocular hypertension), 2 hours after administration) was 8.47 mmHg, the “Intraocular pressure in the right eye” value ([1]; 0.25 mg/mL in right eye (induced ocular hypertension), 4 hours after administration) was 8.60 mmHg and the “Intraocular pressure in the right eye” value ([1]; 0.25 mg/mL in right eye (induced ocular hypertension), 6 hours after administration) was 11.20 mmHg. For the same molecule, the “Intraocular pressure in the right eye” value ([1]; 0.25 mg/mL in right eye (induced ocular hypertension), 8 hours after administration) was 13.37 mmHg, the “Intraocular pressure in the right eye” value ([1]; 0.25 mg/mL in right eye (induced ocular hypertension), 10 hours after administration) was 13.10 mmHg and the “Intraocular pressure in the right eye” value ([1]; 0.25 mg/mL in right eye (induced ocular hypertension), before administration) was 11.43 mmHg. The “Intraocular pressure in the left eye” value ([1]; 2.0 mg/mL group, 2 hours after administration) was 6.60 mmHg, the “Intraocular pressure in the left eye” value ([1]; 2.0 mg/mL group, 4 hours after administration) was 7.04 mmHg and the “Intraocular pressure in the left eye” value ([1]; 2.0 mg/mL group, 6 hours after administration) was 11.23 mmHg. The “Intraocular pressure in the left eye” value ([1]; 2.0 mg/mL group, 8 hours after administration) was 12.84 mmHg, the “Intraocular pressure in the left eye” value ([1]; 2.0 mg/mL group, 10 hours after administration) was 13.10 mmHg and the “Intraocular pressure in the left eye” value ([1]; 2.0 mg/mL group, before administration) was 11.27 mmHg. For the same molecule, the “Intraocular pressure in the right eye” value ([1]; 2.0 mg/mL in right eye (induced ocular hypertension), 2 hours after administration) was 8.52 mmHg, the “Intraocular pressure in the right eye” value ([1]; 2.0 mg/mL in right eye (induced ocular hypertension), 4 hours after administration) was 11.56 mmHg and the “Intraocular pressure in the right eye” value ([1]; 2.0 mg/mL in right eye (induced ocular hypertension), 6 hours after administration) was 13.81 mmHg. The “Intraocular pressure in the right eye” value ([1]; 2.0 mg/mL in right eye (induced ocular hypertension), 8 hours after administration) was 12.96 mmHg, the “Intraocular pressure in the right eye” value ([1]; 2.0 mg/mL in right eye (induced ocular hypertension), 10 hours after administration) was 11.96 mmHg and the “Intraocular pressure in the right eye” value ([1]; 2.0 mg/mL in right eye (induced ocular hypertension), before administration) was 11.23 mmHg. The “Intraocular pressure in the left eye” value ([1]; 8.0 mg/mL group, 2 hours after administration) was 5.93 mmHg, the “Intraocular pressure in the left eye” value ([1]; 8.0 mg/mL group, 4 hours after administration) was 6.43 mmHg and the “Intraocular pressure in the left eye” value ([1]; 8.0 mg/mL group, 6 hours after administration) was 10.10 mmHg. For the same molecule, the “Intraocular pressure in the left eye” value ([1]; 8.0 mg/mL group, 8 hours after administration) was 11.87 mmHg, the “Intraocular pressure in the left eye” value ([1]; 8.0 mg/mL group, 10 hours after administration) was 13.19 mmHg and the “Intraocular pressure in the left eye” value ([1]; 8.0 mg/mL group, before administration) was 11.20 mmHg. For the same molecule, the “Intraocular pressure in the right eye” value ([1]; 8.0 mg/mL in right eye (induced ocular hypertension), 2 hours after administration) was 7.40 mmHg, the “Intraocular pressure in the right eye” value ([1]; 8.0 mg/mL in right eye (induced ocular hypertension), 4 hours after administration) was 7.97 mmHg and the “Intraocular pressure in the right eye” value ([1]; 8.0 mg/mL in right eye (induced ocular hypertension), 6 hours after administration) was 8.84 mmHg. The “Intraocular pressure in the right eye” value ([1]; 8.0 mg/mL in right eye (induced ocular hypertension), 8 hours after administration) was 8.60 mmHg, the “Intraocular pressure in the right eye” value ([1]; 8.0 mg/mL in right eye (induced ocular hypertension), 10 hours after administration) was 8.78 mmHg and the “Intraocular pressure in the right eye” value ([1]; 8.0 mg/mL in right eye (induced ocular hypertension), before administration) was 11.53 mmHg. The “Evaluation of ocular stimulation” value ([2]; concentration range of 0.25-4 mg/mL) was “no stimulation”.
`C[C@H]1CNCCCN1S(=O)(=O)c1cccc2cncc(F)c12` [Compound K-115, reference compound] was tested, and the “Intraocular pressure in the left eye” value ([3]; 1 hour after administration) was 11.42 mmHg, the “Intraocular pressure in the left eye” value ([3]; 2 hours after administration) was 11.67 mmHg and the “Intraocular pressure in the left eye” value ([3]; 4 hours after administration) was 12.08 mmHg. For the same molecule, the “Intraocular pressure in the left eye” value ([3]; 6 hours after administration) was 12.38 mmHg, the “Intraocular pressure in the left eye” value ([3]; 8 hours after administration) was 12.83 mmHg and the “Intraocular pressure in the left eye” value ([3]; 10 hours after administration) was 15.25 mmHg. The “Intraocular pressure in the left eye” value ([3]; before administration) was 12.29 mmHg, the “Intraocular pressure in the right eye” value ([3]; 1 hour after administration) was 7.54 mmHg and the “Intraocular pressure in the right eye” value ([3]; 2 hours after administration) was 8.63 mmHg. The “Intraocular pressure in the right eye” value ([3]; 4 hours after administration) was 10.83 mmHg, the “Intraocular pressure in the right eye” value ([3]; 6 hours after administration) was 11.83 mmHg and the “Intraocular pressure in the right eye” value ([3]; 8 hours after administration) was 12.63 mmHg. The “Intraocular pressure in the right eye” value ([3]; 10 hours after administration) was 14.92 mmHg, the “Intraocular pressure in the right eye” value ([3]; before administration) was 12.92 mmHg and the “Reduction magnitude of intraocular pressure” value (shortened to “Reduction magnitude”) ([3]; 1 hour after administration) was 3.88 mmHg. For the same molecule, the “Reduction magnitude” value ([3]; 2 hours after administration) was 3.04 mmHg, the “Reduction magnitude” value ([3]; 4 hours after administration) was 1.25 mmHg and the “Reduction magnitude” value ([3]; 6 hours after administration) was 0.55 mmHg. For the same molecule, the “Reduction magnitude” value ([3]; 8 hours after administration) was 0.2 mmHg, the “Reduction magnitude” value ([3]; 10 hours after administration) was 0.33 mmHg and the “Reduction magnitude” value ([3]; before administration) was −0.63 mmHg. For the same molecule, the “Intraocular pressure in the left eye” value ([1]; 4 mg/mL group, 2 hours after administration) was 6.50 mmHg, the “Intraocular pressure in the left eye” value ([1]; 4 mg/mL group, 4 hours after administration) was 8.54 mmHg and the “Intraocular pressure in the left eye” value ([1]; 4 mg/mL group, 6 hours after administration) was 11.40 mmHg. For the same molecule, the “Intraocular pressure in the left eye” value ([1]; 4 mg/mL group, 8 hours after administration) was 13.20 mmHg, the “Intraocular pressure in the left eye” value ([1]; 4 mg/mL group, 10 hours after administration) was 13.37 mmHg and the “Intraocular pressure in the left eye” value ([1]; 4 mg/mL group, before administration) was 11.80 mmHg. The “Intraocular pressure in the right eye” value ([1]; 4 mg/mL in right eye (induced ocular hypertension), 2 hours after administration) was 8.20 mmHg, the “Intraocular pressure in the right eye” value ([1]; 4 mg/mL in right eye (induced ocular hypertension), 4 hours after administration) was 11.27 mmHg and the “Intraocular pressure in the right eye” value ([1]; 4 mg/mL in right eye (induced ocular hypertension), 6 hours after administration) was 15.07 mmHg. The “Intraocular pressure in the right eye” value ([1]; 4 mg/mL in right eye (induced ocular hypertension), 8 hours after administration) was 15.57 mmHg, the “Intraocular pressure in the right eye” value ([1]; 4 mg/mL in right eye (induced ocular hypertension), 10 hours after administration) was 16.47 mmHg and the “Intraocular pressure in the right eye” value ([1]; 4 mg/mL in right eye (induced ocular hypertension), before administration) was 11.77 mmHg. For the same molecule, the “Evaluation of ocular stimulation” value ([2]; 4 mg/mL) was “no stimulation”.
